One data set concerns wheat seedlings. As to conditions: 15000 ppm Prussian blue; 4.5 cm in its absence.
For a further data set, the system named is maize inbred line Mo17. Briefly: Shoot length of Mo17 after soil treatments and T22 seed treatment, Arkport sandy loam field soil. The format is in vivo. To be noted: no seed treatment, soil drenched with mefenoxam, seven days after planting.

Experimental for maize inbred line Mo17: Ten-day assays were conducted in larger boxes (5×11×11 cm). Four or five seeds, either treated or not treated with T22, were planted in each box and plants were grown for various lengths of time with 12 hr diurnal fluorescent lighting and were watered as needed. In some experiments, soils were autoclaved to examine maize growth responses in the absence of natural soil pathogens. In addition, some soils were drenched with mefenoxam ((R)-2-[2,6-dimethylphenyl)-methoxyacetylamino]-propionic acid methyl ester]; Subdue MAXX, Novartis, Research Triangle, NC) according to the manufacturer's directions.
Text for wheat seedlings: Ten wheat seeds were germinated in petri dishes containing approximately 50 g of grit sand. Each dish was moistened with plant nutrient solution in the presence or absence of 15000 ppm metallocyanide Prussian blue.

With `[C-]#N.[C-]#N.[C-]#N.[C-]#N.[C-]#N.[C-]#N.[C-]#N.[C-]#N.[C-]#N.[C-]#N.[C-]#N.[C-]#N.[C-]#N.[C-]#N.[C-]#N.[C-]#N.[C-]#N.[C-]#N.[Fe+2].[Fe+2].[Fe+2].[Fe+3].[Fe+3].[Fe+3].[Fe+3]` [Prussian blue, Fe4 [Fe(CN)6]3], in the data set with wheat seedlings, the “Mean root length of the wheat seedlings” value is recorded as 2.0 cm.
`COCC(=O)N(c1c(C)cccc1C)[C@H](C)C(=O)OC` [mefenoxam] gave a Shoot length with maize inbred line Mo17 of 63ab xy mm.

These data come from US20040261578A1, “Stable self-organizing plant-organism systems for remediating polluted soils and waters” (priority 2003, published 2004).
